Like-named read-outs stand apart in the source and are kept apart here.
How the values were obtained:
[1] = tested on: mouse model of MPO-ANCA vasculitis; test: ANCA vasculitis mouse model (anti-MPO splenocyte transfer into Rag2−/− mice), kidney histology; format: in vivo; settings: ATB 60 μmol/kg, administered orally (per os)
Description: MPO knockout mice were immunized with mouse MPO based on the following protocol. On day 1 200 μl of 20 μg murine MPO (mMPO) or BSA in total with Complete Freud's Adjuvant were injected to MPO KO mice. 30-40 μl were injected to the backfoot footpads and 120-160 μl were injected subcutaneously in the abdominal region. On day 14 20 μg mMPO/BSA were injected IP with incomplete Freud's Adjuvant and on day 28 mice were boosted with 20 μg mMPO/BSA in DPBS buffer IP. 10 days after boost blood was drawn from eye corner under isoflurane anesthesia and antibody titers were checked by anti-MPO ELISA. If titer were low mice were boosted again with 20 μg mMPO or BSA and titer were checked again 7 days later. If titers were appropriate mice were terminated and splenocytes were isolated. […] The remaining red blood cells were lysed with Red Blood Cell Lysis Buffer according to manufacturer's instructions. […] Cells were counted using trypan blue solution, the total cell count varied between 3×10^7 and 6×10^7. Splenocytes derived from 1 mouse were injected into 2 Rag2−/− immunodeficient mice intravenously. […] After 4 weeks antibody titers were checked with anti-MPO ELISA. […]
The percentage of affected glomeruli in treated samples were calculated compared to their control pairs.

neutrophils [2] = settings: cited from earlier work
neutrophils [3] = test: Neutrophil phagocytosis of fluorescent Escherichia coli K-12 BioParticles (Vybrant kit); format: cell-based, human; settings: GYY4137 10-100 μM, 2 hours
Description: Phagocytosis experiments were carried out with the Vybrant™ Phagocytosis Assay Kit based on manufacturers instruction. Briefly, Fluorescent-labeled Escherichia coli K-12 BioParticles, and trypan blue stock solutions were prepared. […] 1 hour or 5 minutes prior to the addition of the fluorescent BioParticles suspension. After 2 hours the BioParticle solution was removed, 100 μl trypan blue solution was added immediately, and incubated for 1 minute at room temperature. Trypan blue was removed and 100 μl HBSS was added to each well. Fluorescence was measured at the excitation and emission wavelengths of 480 and 520 nm respectively. Samples for microscopy analysis were prepared similarly with the cell number of 2×10^5/well in EZ slide chamber slides.

neutrophils [4] = settings: cited from earlier work; remark: listed apart in the source
[5] = tested on: PMA activated neutrophils
[6] = tested on: PMA-activated neutrophils
[7] = upon PMA and bacterial activation

COc1ccc2cc(C(C)C(=O)Oc3ccc(C(N)=S)cc3)ccc2c1 (stereo not drawn) [ATB346]
efficacy on kidney damage in ANCA mouse model [1]: nor proved to be beneficial in reducing kidney damage
efficacy on kidney damage in ANCA mouse model ([1]; listed as ATB): proved to be inefficient

N[C@@H](CS)C(=O)O [cysteine]
neutrophil apoptosis (neutrophils [2]; [7]): inhibited neutrophil apoptosis
oxidative burst (neutrophils [2]; [7]): promoted oxidative burst

C=C1[C@@H](C)[C@H]2[C@H](Cc3ccccc3)NC(=O)[C@]23[C@H](OC(C)=O)/C=C/[C@@](C)(O)C(=O)[C@@H](C)C/C=C/[C@H]3[C@@H]1O [cytochalasin D]
phagocytosis of E. coli Bioparticles (fluorescent microscopy) (neutrophils [3]): inhibited

C=CCSSCC=C [diallyl-disulfide]
neutrophil apoptosis (neutrophils [2]; [7]): inhibited neutrophil apoptosis
oxidative burst (neutrophils [2]; [7]): promoted oxidative burst

C=CCSSSCC=C [diallyl-trisulfide]
neutrophil apoptosis (neutrophils [2]; [7]): inhibited neutrophil apoptosis
oxidative burst (neutrophils [2]; [7]): promoted oxidative burst

sodium sulfide
neutrophil apoptosis (neutrophils [2]): inhibited neutrophil apoptosis
oxidative burst (neutrophils [2]): promoted oxidative burst
killing of bacteria by neutrophils (neutrophils [4]): more efficient in killing bacteria
neutrophil apoptosis (neutrophils [4]): diminished neutrophil apoptosis
H2O2 production by PMA-activated neutrophils (FOX assay) [5]: not affected
β-glucuronidase activity in supernatants (degranulation), PMA activation [6]: no effect on the enzymatic activity

From US20260216220A1, “TREATMENT OF MYELOPEROXIDASE-POSITIVE ANCA-ASSOCIATED VASCULITIS WITH H2S RELEASING COMPOUNDS” (DEBRECENI EGYETEM, priority 2022, published 2026)
